In brackets after ≈: the same amount, converted by molar mass. Read-outs that look alike come from different tables or passages of the source. Where a SMILES comes first, the peptide text is derived from it. Where no end group is shown, it is not given here. [ ]: non-standard residue; d: D form. ξ: configuration not given here. ξPhe(4-N(CH2CH2Cl)2) = NC(Cc1ccc(N(CCCl)CCCl)cc1)C(=O)O
Columns and labels:
[1] = Solubility assay in normal saline (HPLC); assay type: physicochemical; settings: 37° C.
Description: Liquid chromatography detection conditions for melphalan: column: YMC-Pack ODS-A column (150×4.6 mm, 5 μm); mobile phase: 40% acetonitrile solution; flow rate: 0.7 mL/min; column temperature: 25° C.; detection wavelength: 260 nm; injection volume: 10 μL.
Solubility assay: melphalan 0.1 mg was accurately weighted and dispersed in 1 mL normal saline, ultrasonicated for 5 min, incubated at 37° C. for 24 hrs, and filtered through 0.22 μm filter membrane. The peak area of the sample was obtained by liquid chromatography. The concentration of the sample was calculated by substituting the peak area in the standard curve equation.
Liquid chromatography detection conditions for 89WP-Mel and 289WP-Mel: column: YMC-Pack ODS-A column (150×4.6 mm, 5 μm); mobile phase: 5-65% acetonitrile (with 0.1% TFA), 30 min; flow rate: 0.7 mL/min; column temperature: 25° C.; detection wavelength: 214 nm; injection volume: 10 μL.
Solubility assay: The excess amount of 89WP-Mel or 289WP-Mel was dispersed in 60 μL normal saline, ultrasonicated for 5 min, incubated at 37° C. for 24 hrs, filtered through 0.22 μm filter membrane, and then diluted 10 times and 20 times respectively. The peak area of the samples was obtained by liquid chromatography. The concentration of the samples was calculated by substituting the peak area in the standard curve equation.
The samples were incubated in normal saline at 37° C. and 160 rpm for 24 h to obtain the saturated solutions. The solubility of the conjugates is converted to the solubility of melphalan moiety.

[2] = test system: HCEC cells; assay: cells; assay type: cell-based; settings: 4 hrs co-incubation then 24 h fresh medium, MTT
Description: The survivals of the HCEC, ARPE-19 and WERI-Rb-1 cells after co-incubation with polypeptides or conjugates were investigated by the MTT or CCK-8 methods (n=4). The HCEC or ARPE-19 cells were co-incubated with polypeptides or conjugates for 4 hrs, followed by incubation in fresh medium for 24 h before addition of MTT for detection. The WERI-Rb-1 cells were co-incubated with the polypeptides or conjugates for 4 hrs, and then CCK-8 was added directly for detection. The cells under normal culture conditions were used as negative control (100% survival).
(§1) The ARPE-19 and WERI-Rb-1 cells with good growth status in the logarithmic phase were placed on 96 well plates at a density of 2000 cells/well. After incubation for 24 hrs, the drug solutions at different concentrations were added. The ARPE-19 cells were incubated at 37° C. for 4 hrs. Then, the drug solutions were discarded. The plates were washed with PBS thrice. The fresh medium was then added and incubated for 24 h. Then, 0.5 mg/mL MTT was added and incubated at 37° C. for 4 hrs. The culture solution was discarded. To each well DMSO (150 μl) was added, and the plates were shaken on a shaker for 20 min. Then, the OD490nm value was measured. For the WERI-Rb-1 cells, they were incubated with drug solutions for 4 hrs, and CCK-8 reagent (10 μL) was added to each well. The plates were incubated at 37° C. for 2 hrs. The OD490nm value was measured directly. In addition, zero_adjustment wells and negative control wells (cell survival rate 100%) were set.

[3] = test system: ARPE-19 cells; assay type: cell-based; settings: ARPE-19, 4 hrs co-incubation then 24 h fresh medium, MTT
Description: as §1

[4] = test system: WERI-Rb-1 cells; assay type: cell-based; settings: WERI-Rb-1, 4 hrs co-incubation, CCK-8
Description: as §1

[5] = Hematology safety evaluation (complete blood cell count); assay type: in vivo, ICR mice; settings: eye dropping 2 times a day for 2 weeks
Description: Safety evaluation of 89WP-Mel eye drops: it is likely that the eye drops may be absorbed systemically, while the chemotherapeutic drug melphalan may cause systemic toxicity. The representative side effects include bone marrow suppression, etc. Thus, hematology evaluation was performed in the administration groups to determine the safety of the eye drops. Healthy male ICR mice (18-20 g) were subjected to the administration according to the regimen of pharmacodynamic evaluation experiment, wherein the frequency of eye dropping the normal saline, melphalan solution, and 89WP-Mel solution was changed to 2 times a day for 2 weeks, and the melphalan intravitreal injection was performed once a week. At the end of administration, 200 μL of whole blood was taken, anticoagulated with EDTA, and subjected to a complete blood cell count.

[6] = test system: Fluc/GFP-Rb-1 cells; assay: In vivo safety evaluation in orthotopic tumor-bearing mouse model
Description: Before the experiments, the healthy male Balb/c-nude mice (4 weeks old) were subjected to ophthalmic examination to ensure the normal eyes. Amobarbital sodium (40 mg/kg) was injected intraperitoneally to the mice for general anesthesia, the commercially available 0.4% oxybuprocaine hydrochloride eye drops were administrated to the surface of the eyes for local anesthesia of the eye surface, and the commercially available 0.5% tropicamide eye drops were administrated for pupil dilation. The Fluc/GFP-Rb-1 cells (resuspended in 10 mM PBS at a density of 1×10^4 cells/μL) were injected into the vitreous body of the mice via a micro-syringe (33 G, Hamilton), 2 μL cell suspension for each eye.
For the tumor-bearing mice, administration was performed by ocular surface dropping.
Detection scheme: At the end of 1 month administration, the mice were euthanized by an overdose of anesthesia (anaobarbital sodium, 150 mg/kg). The cardiac perfusion was performed sequentially with normal saline and 4% paraformaldehyde. The eyeballs, hearts, liver, spleen, lung, kidney, brain and other organs were harvested and dehydrated overnight in 15% and 30% sucrose solutions gradient. The HE stained sections and immunohistochemical sections were made and observed.

[7] = test system: Fluc/GFP-Rb-1 cells; assay: Intraocular pharmacodynamic evaluation in tumor-bearing mice; assay type: in vivo
Description: Specifically, D-luciferin (150 mg/kg) was injected intraperitoneally into each mouse, followed by general anesthesia with isoflurane. Twenty minutes after anesthesia, ocular bioluminescence signals were collected, with 30 seconds exposure time. On the day of administration (D0) and at the corresponding time points after administration, the bioluminescence signals of the mice eyeballs in each group were collected. […] The whole brain tissue was harvested. The immunohistochemical sections were made and observed.

[8] = test system: retinoblastoma (Fluc/GFP-Rb-1) cells; assay: Eye drops for treatment of intraocular retinoblastoma, mouse model; assay type: in vivo, Balb/c nude mice; settings: for mice with obvious tumor areas in the brain sections: 8 mice per group
Description: Construction of retinoblastoma mouse model: the male Balb/c nude mice (18-20 g) were subjected to general anesthesia by intraperitoneal injection of amobarbital sodium (30 mg/kg). The 0.4% oxybuprocaine hydrochloride was administrated for local anesthesia of the eye surface. After the anesthesia, the 0.5% tropicamide was administrated for pupil dilation. The retinoblastoma (Fluc/GFP-Rb-1) cells (resuspended in 2 μL 10 mM PBS, 2×10^4 cells for each mouse) were slowly injected into the vitreous body near retina via a micro-syringe (33 G, Hamilton). After the injection, 0.25% chloramphenicol was dropped to the ocular surface to prevent ocular inflammation. Then, it is determined whether the model was successfully established according to the bioluminescent signal intensity in the eyes of the mice. The successfully established model mice were randomly divided into 4 groups, with 8 mice in each group.
During the 60-day pharmacodynamic evaluation experiment, the dosage regimens for the different mice groups are as follows: Group 1: eye dropping with normal saline once a day, 10 μL for each dropping; Group 2: eye dropping with 3.0 mg/mL melphalan solution once a day, 10 μL for each dropping; Group 3: eye dropping with 89WP-Mel solution (containing 3.0 mg/mL melphalan) once a day, 10 μL for each dropping; Group 4: intravitreal injection with 0.5 mg/mL melphalan solution once every two weeks, 2 μL for each injection.
The method of efficacy evaluation is as follows: on Day 0, 2, 4, 6, 9, 12, 15, 17, 20, 25 and 30 after the administration, the mice in each group were injected intraperitoneally with 150 mg/kg D-Luciferin, followed by anesthesia with isoflurane for 15 min. The bioluminescent signal intensity in the eyes of the mice was detected by IVIS Spectrum system (PerkinElmer, USA).

[9] = test system: red blood cells; assay: Ability to lyse red blood cells at different pH; assay type: cell-based
Description: The red blood cells were resuspended at a density of 7×10^7 cells/mL in incubation medium at different pHs. The cell suspension (75 μL) was mixed with 75 μL of aqueous solution of test sample. Pure water was set as a negative control, and 1 μL Triton X-100 dissolved in 74 μL pure water was set as a positive control. Incubation was performed at 37° C. for 1 h in an air shaker at 200 rpm. After incubation, the samples were centrifugated at 1000 g for 5 min. The supernatant (100 μL) was taken to measure the OD450 nm/750 nm via microplate reader.

[10] = test system: HCEC cells; assay: Intracellular distribution by laser confocal microscope; assay type: cell-based; settings: 3 μM, 37° C., 4 hrs
Description: (§2) The HCEC and ARPE-19 cells with good growth status in the logarithmic phase were placed in 4-chamber confocal dishes at a density of 1×10^4 cells/well and incubated for 24 hrs. The drug solutions (all comprising 3 μM fluorescein) were added and incubated at 37° C. for 3.5 hrs. LysoTracker was then added and incubated for 0.5 hrs. Then, the drug solutions were discarded. After being washed with cold 10 mM PBS (containing 0.02 mg/mL heparin sodium) thrice and fixed with 4% paraformaldehyde, the nuclei were stained with DAPI.

[11] = test system: ARPE-19 cells; assay: as above; assay type: cell-based; settings: ARPE-19, 3 μM, 37° C., 4 hrs
Description: as §2

[12] = Ocular pharmacokinetic evaluation after eye dropping; assay type: in vivo, mice
Description: The distribution and elimination behavior of the conjugates in the eye tissues was investigated by dropping the drugs into the conjunctival sac of the mice. The conjugate solution 10 μL (at a concentration of 30 μM) was dropped into the conjunctival sac of the mice. The eyelids were gently closed to make the solution distributed evenly. […] The eyeballs were taken out and fixed with FAS eyeball fixative solution for 24 hours, dehydrated with 15% and 30% sucrose solution gradients, and then embedded in OCT to prepare 8 μm thick eyeball frozen sections. The cell nuclei were stained with DAPI.

[13] = test system: ARPE-19 cell monolayer; assay: Penetration across the retinal pigment epithelial cell monolayer model; settings: four hours after administration, 3 μM
Description: The model in FIG. 8B is obtained by seeding the WERI-Rb-1 cells in good growth state at 2×10^4 cells/well in the lower chamber 24 hours before administration.
Samples (200 μL for each sampling) were taken every 0.5 h from the lower chamber, and 200 μL fresh D-Hank's balanced salt solution was added immediately. A total of 8 samples were taken. The fluorescence signal intensity of the samples was detected with a microplate reader (Ex 490 nm/Em 520 nm).
The calculation formula of the Apparent Permeability Coefficient (Papp) is as follows:
wherein, ΔQ/Δt is the change of the molar amount of the polypeptide across the retinal pigment epithelial cell monolayer model per unit time, which can be obtained from the slope by fitting the cumulative permeability and the diffusion time; C0 is the initial concentration of the polypeptide in the donor cell, which is 3 μM; A is the area of the cornea or sclera exposed to the diffusion medium, i.e., the effective diffusion area, which is 0.825 cm^2.

[14] = read-out: Solubility of drug-polypeptide conjugate
[15] = saline or isotonic, thermodynamic from solid, read-out: Solubility of drug
[16] = intravitreal injection 0.5 mg/mL
[17] = four hours after dropping, 30 μM

Compound: CC[C@H](C)[C@H](NC(=O)[C@H](CCCCN)NC(=O)[C@@H](NC(=O)[C@H](CCC(N)=O)NC(=O)[C@@H](N)CCCNC(=N)N)[C@@H](C)CC)C(=O)N[C@@H](Cc1c[nH]c2ccccc12)C(=O)N[C@@H](Cc1ccccc1)C(=O)N[C@@H](Cc1c[nH]c2ccccc12)C(=O)N[C@@H](Cc1c[nH]c2ccccc12)C(=O)N[C@@H](CCCNC(=N)N)C(=O)N[C@@H](CCCNC(=N)N)C(=O)N[C@@H](CCSC)C(=O)N[C@@H](CCCCN)C(=O)N[C@@H](Cc1c[nH]c2ccccc12)C(=O)N[C@@H](CCCCN)C(=O)N[C@@H](CCCCN)C(=O)NC(Cc1ccc(N(CCCl)CCCl)cc1)C(=O)O (stereo partly drawn) [89WP-Mel] (H-RQIKIWFWWRRMKWKK[ξPhe(4-N(CH2CH2Cl)2)]-OH)
- solubility at 24 h [1, 14]: 44.7 ± 2.62 mg/mL (≈ 16.8 mM)
- IC50 ([2]; read-out: IC50): 147 µM
- IC50 ([3]; read-out: IC50): 177 µM
- IC50 [4]: 0.28 µM
- platelet count versus normal saline eye dropping group [5]: did not significantly decrease
- red blood cell count versus normal saline eye dropping group [5]: did not significantly decrease
- white blood cell count versus normal saline eye dropping group [5]: did not significantly decrease
- safety by HE-stained sections of the various organs ([6]; eye dropping, 1 month): safe

Compound: CC[C@H](C)[C@H](NC(=O)[C@H](CCCCN)NC(=O)[C@@H](NC(=O)[C@H](Cc1c[nH]c2ccccc12)NC(=O)[C@@H](N)CCCNC(=N)N)[C@@H](C)CC)C(=O)N[C@@H](Cc1c[nH]c2ccccc12)C(=O)N[C@@H](Cc1ccccc1)C(=O)N[C@@H](Cc1c[nH]c2ccccc12)C(=O)N[C@@H](Cc1c[nH]c2ccccc12)C(=O)N[C@@H](CCCNC(=N)N)C(=O)N[C@@H](CCCNC(=N)N)C(=O)N[C@@H](CCSC)C(=O)N[C@@H](CCCCN)C(=O)N[C@@H](Cc1c[nH]c2ccccc12)C(=O)N[C@@H](CCCCN)C(=O)N[C@@H](CCCCN)C(=O)NC(Cc1ccc(N(CCCl)CCCl)cc1)C(=O)O (stereo partly drawn) [289WP-Mel] (H-RWIKIWFWWRRMKWKK[ξPhe(4-N(CH2CH2Cl)2)]-OH; N-terminus assumed)
- solubility at 24 h [1, 14]: 41.8 ± 1.39 mg/mL (≈ 15.4 mM)

Compound: N[C@@H](Cc1ccc(N(CCCl)CCCl)cc1)C(=O)O [melphalan]
- solubility at 24 h [1, 15]: < 0.001 mg/mL
- solubility thermodynamic at 24 h [1, 15]: < 0.001 mg/mL
- IC50 ([2]; listed as Mel): 113 µM
- IC50 ([2]; Homo sapiens): 100 to 200 µM
- IC50 [3]: 100 to 200 µM
- IC50 ([3]; listed as Mel): 200 µM
- mice with obvious brain tumor areas ([7]; eye dropping 3.0 mg/mL): one
- tumor growth curve versus normal saline eye dropping group ([7]; eye dropping 10 μl once a day, 3.0 mg/mL melphalan content): no significant difference
- mice with obvious brain tumor areas [7, 16]: two
- survival period versus normal saline group ([7]; intravitreal injection 0.5 mg/mL, 2 μL, once per two weeks): no significant difference
- mice with obvious tumor areas in the brain sections ([8]; eye dropping 3.0 mg/mL): 1
- anti-tumor effect in the first month of administration ([8]; eye drops once a day, 3.0 mg/mL melphalan content): no antitumor effect
- mice with obvious tumor areas in the brain sections [8, 16]: 2
- size of the vitreous seeds of intraocular tumors, order of groups ([6]; melphalan solution 3.0 mg/mL eye dropping): normal saline group≈melphalan solution eye dropping group

Compound: RQIKIWFWWRRMKWKK [89WP]
- hemolysis ratio ([9]; pH 5.5, 40 μM): 16.4%
- hemolysis ratio ([9]; pH 5.5, 640 μM): 45.1%
- hemolysis ratio ([9]; pH 6.0, 160 μM): 21.7%
- hemolysis ratio ([9]; pH 6.0, 640 μM): 33.3%
- hemolysis ratio ([9]; pH 7.4, 640 μM): 25.8%
- hemolysis ratio ([9]; pH 7.4, low concentration (<320 μM)): around 10%

Compound: carboxyl fluorescein [FAM]
- fluorescence signal in the cells [10]: no obvious green fluorescence signal
- fluorescence signal in the cells [11]: no obvious green fluorescence signal
- time of peak fluorescence intensity in the retina ([12]; 10 μL of 30 μM dropped into conjunctival sac): 4 h
- retinal fluorescence intensity versus blank retina ([12]; 8 hours after eye dropping): no significant difference
- fluorescence signal in anterior ocular segment (cornea), whole eye sections [12, 17]: no obvious green or red fluorescence signal
- fluorescence signal in posterior ocular segment (retina), whole eye sections [12, 17]: no obvious green or red fluorescence signal
- fluorescence signal at the donor side of the cell monolayer [13]: no green fluorescence signal
